Data from US12139520B2 (priority 2020, dated 2024).
Bridge positions count the residues as written; N and C are the ends. Square brackets hold non-standard residues; d marks the D form. Peptide text beside a SMILES is read from it. Hyp = O=C(O)[C@@H]1C[C@@H](O)CN1; Cit = NC(=O)NCCC[C@H](N)C(=O)O

Columns and labels:
[1] = target: T1, hAMY3 receptor (Homo sapiens, UniProt O60896+P30988); test: cAMP assay for in vitro receptor activation, hAMY3-R; format: cell-based; settings: cAMP assay, hAMY3 receptor; read-out: hAMY3R EC50
T1 sequence (P30988 25-474): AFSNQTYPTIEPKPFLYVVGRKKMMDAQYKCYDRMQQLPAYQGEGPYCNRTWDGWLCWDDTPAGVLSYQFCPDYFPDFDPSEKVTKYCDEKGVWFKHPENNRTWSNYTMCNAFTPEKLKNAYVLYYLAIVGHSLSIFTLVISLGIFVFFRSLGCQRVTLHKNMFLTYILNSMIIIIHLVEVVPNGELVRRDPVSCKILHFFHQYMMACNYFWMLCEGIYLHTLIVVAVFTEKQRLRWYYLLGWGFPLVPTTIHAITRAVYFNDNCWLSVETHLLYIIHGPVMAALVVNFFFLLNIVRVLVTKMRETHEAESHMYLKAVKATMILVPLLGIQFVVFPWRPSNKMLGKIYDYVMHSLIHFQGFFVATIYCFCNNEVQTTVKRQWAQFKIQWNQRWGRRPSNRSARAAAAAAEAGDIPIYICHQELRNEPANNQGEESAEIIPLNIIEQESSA
T1 sequence (O60896 24-148 partner): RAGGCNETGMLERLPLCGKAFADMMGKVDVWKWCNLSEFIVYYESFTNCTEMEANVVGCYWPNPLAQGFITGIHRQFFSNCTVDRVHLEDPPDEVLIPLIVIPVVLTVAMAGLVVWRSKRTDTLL
Procedure, shortened: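 Accumulated cAMP was detected by time-resolved FRET one hour after reagent addition. Beforehand, hAMY3-R-overexpressing monoclonal cells (2000/well, DPBS, 0.05% casein, 0.5 mM IBMX) received graded doses of compound for 30 min at room temperature; human amylin served as positive control.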

[2] = Physical stability of peptide analogues (Thioflavin T fibrillation); format: physicochemical; settings: maximum ThT signal normalized between hAMY maximum and buffer background; 40° C., shaking, four days; pH 7 per table title
Procedure, shortened: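 Peptides in 50 mM sodium acetate pH 4 or 50 mM sodium phosphate pH 7 were preincubated 1 h, mixed with 4 μM ThT, held at 40° C with 700 rpm shaking before each read. Fluorescence (ex 450/em 480 nm) every 10 min for four days; LOESS-smoothed maximum signal normalized in percent between hAMY and buffer.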

Structure (SMILES) | EC50 [1] [nM] | Max ThT signal (%) [2] [%]
CC[C@H](C)[C@H](NC(=O)[C@H](CCC(N)=O)NC(=O)[C@H](Cc1c[nH]cn1)NC(=O)[C@H](C)NC(=O)[C@H](CC(C)C)NC(=O)[C@H](CCCNC(=N)N)NC(=O)[C@H](CCC(N)=O)NC(=O)[C@@H](NC(=O)[C@@H](NC(=O)[C@@H]1CSSC[C@H](NC(=O)CN)C(=O)N[C@@H](CCCNC(=N)N)C(=O)N[C@@H](Cc2ccccc2)C(=O)NCC(=O)N[C@@H]([C@@H](C)O)C(=O)N1)[C@@H](C)O)C(C)C)C(=O)N[C@@H](Cc1ccc(O)cc1)C(=O)N[C@@H](CCC(N)=O)C(=O)N[C@@H](Cc1ccccc1)C(=O)N[C@H](C(=O)N[C@@H](CC(=O)O)C(=O)N[C@@H](CCCCN)C(=O)N[C@@H](CC(=O)O)C(=O)N[C@@H](CCCCN)C(=O)N[C@@H](CC(=O)O)C(=O)N[C@@H](CC(N)=O)C(=O)N[C@H](C(=O)N[C@@H](C)C(=O)N1CCC[C@H]1C(=O)N[C@@H](CCCNC(=N)N)C(=O)N[C@H](C(=O)N[C@@H](CC(N)=O)C(=O)N[C@H](C(=O)N[C@@H](CO)C(=O)N1CCC[C@H]1C(=O)N[C@@H](CCC(N)=O)C(=O)NCC(=O)N1C[C@H](O)C[C@H]1C(N)=O)C(C)C)[C@@H](C)O)C(C)C)[C@@H](C)O [compound 125] (H-GCRFGTCTVQRLAHQIYQFTDKDKDNVAPRTNVSPQG[Hyp]-NH2; disulfide 2-7; N-terminus assumed) | 0.027 | 7.200
CC[C@H](C)[C@H](NC(=O)[C@H](CCC(N)=O)NC(=O)[C@H](Cc1c[nH]cn1)NC(=O)[C@H](C)NC(=O)[C@H](CC(C)C)NC(=O)[C@H](CCCNC(=N)N)NC(=O)[C@H](CCC(N)=O)NC(=O)[C@@H](NC(=O)[C@@H](NC(=O)[C@@H]1CSSC[C@H](NC(=O)CN)C(=O)N[C@@H](CCCNC(=N)N)C(=O)N[C@@H](Cc2ccccc2)C(=O)NCC(=O)N[C@@H]([C@@H](C)O)C(=O)N1)[C@@H](C)O)C(C)C)C(=O)N[C@@H](Cc1ccc(O)cc1)C(=O)N[C@@H](CCC(N)=O)C(=O)N[C@@H](Cc1ccccc1)C(=O)N[C@H](C(=O)N[C@@H](CC(=O)O)C(=O)N[C@@H](CCCCN)C(=O)N[C@@H](CC(=O)O)C(=O)N[C@@H](CCCCN)C(=O)N[C@@H](CC(=O)O)C(=O)N[C@@H](CC(N)=O)C(=O)N[C@H](C(=O)N[C@@H](C)C(=O)N1CCC[C@H]1C(=O)N[C@@H](CCCNC(=N)N)C(=O)N[C@H](C(=O)N[C@@H](CCCCN)C(=O)N[C@H](C(=O)N[C@@H](CO)C(=O)N1CCC[C@H]1C(=O)N[C@@H](CC(N)=O)C(=O)NCC(=O)N[C@@H](Cc1ccc(O)cc1)C(N)=O)C(C)C)[C@@H](C)O)C(C)C)[C@@H](C)O [compound 385] (H-GCRFGTCTVQRLAHQIYQFTDKDKDNVAPRTKVSPNGY-NH2; disulfide 2-7; N-terminus assumed) | 0.036 | 8.800
CC[C@H](C)[C@H](NC(=O)[C@H](CCC(N)=O)NC(=O)[C@H](C)NC(=O)[C@H](C)NC(=O)[C@H](CC(C)C)NC(=O)[C@H](CCCNC(N)=O)NC(=O)[C@H](CCC(N)=O)NC(=O)[C@@H](NC(=O)[C@@H](NC(=O)[C@@H]1CSSC[C@H](NC(=O)[C@@H](N)CCCCN)C(=O)N[C@@H](CC(N)=O)C(=O)N[C@@H]([C@@H](C)O)C(=O)N[C@@H](C)C(=O)N[C@@H]([C@@H](C)O)C(=O)N1)[C@@H](C)O)C(C)C)C(=O)N[C@@H](Cc1ccc(O)cc1)C(=O)N[C@@H](CCC(N)=O)C(=O)N[C@@H](Cc1ccccc1)C(=O)N[C@H](C(=O)N[C@@H](CC(=O)O)C(=O)N[C@@H](CCCCN)C(=O)N[C@@H](CC(=O)O)C(=O)N[C@@H](CCCCN)C(=O)N[C@@H](CC(=O)O)C(=O)N[C@@H](CC(N)=O)C(=O)N[C@H](C(=O)N[C@@H](C)C(=O)N1CCC[C@H]1C(=O)N1CCC[C@H]1C(=O)N[C@H](C(=O)N[C@@H](CC(N)=O)C(=O)N[C@H](C(=O)NCC(=O)N[C@@H](CO)C(=O)N[C@@H](CC(N)=O)C(=O)NCC(=O)N1C[C@H](O)C[C@H]1C(N)=O)C(C)C)[C@@H](C)O)C(C)C)[C@@H](C)O [compound 243] (H-KCNTATCTVQ[Cit]LAAQIYQFTDKDKDNVAPPTNVGSNG[Hyp]-NH2; disulfide 2-7; N-terminus assumed) | 0.018 | 8.550

Compounds with a lower EC50 [1], results first:

EC50 [1] [nM] | Max ThT signal (%) [2] [%] | Structure (SMILES)
0.005 | 21.150 | CC[C@H](C)[C@H](NC(=O)[C@H](CCC(N)=O)NC(=O)[C@H](Cc1c[nH]cn1)NC(=O)[C@H](C)NC(=O)[C@H](CC(C)C)NC(=O)[C@H](CCCNC(N)=O)NC(=O)[C@H](CCC(N)=O)NC(=O)[C@@H](NC(=O)[C@@H](NC(=O)[C@@H]1CSSC[C@H](NC(=O)CN)C(=O)N[C@@H](CCCNC(=N)N)C(=O)N[C@@H](Cc2ccccc2)C(=O)NCC(=O)N[C@@H]([C@@H](C)O)C(=O)N1)[C@@H](C)O)C(C)C)C(=O)N[C@@H](Cc1ccc(O)cc1)C(=O)N[C@@H](CCC(N)=O)C(=O)N[C@@H](Cc1ccccc1)C(=O)N[C@H](C(=O)N[C@@H](CC(=O)O)C(=O)N[C@@H](CCCCN)C(=O)N[C@@H](CC(=O)O)C(=O)N[C@@H](CCCCN)C(=O)N[C@@H](CC(=O)O)C(=O)N[C@@H](CC(N)=O)C(=O)N[C@H](C(=O)N[C@@H](C)C(=O)N1CCC[C@H]1C(=O)N[C@@H](CCCNC(=N)N)C(=O)N[C@@H](CO)C(=O)N[C@@H](CC(N)=O)C(=O)N[C@H](C(=O)NCC(=O)N1CCC[C@H]1C(=O)N[C@@H](CCC(N)=O)C(=O)NCC(=O)N1C[C@H](O)C[C@H]1C(N)=O)C(C)C)C(C)C)[C@@H](C)O [compound 289] (H-GCRFGTCTVQ[Cit]LAHQIYQFTDKDKDNVAPRSNVGPQG[Hyp]-NH2; disulfide 2-7; N-terminus assumed)
0.015 | 4.000 | CC[C@H](C)[C@H](NC(=O)[C@H](CC(N)=O)NC(=O)[C@@H](NC(=O)[C@H](CCCNC(=N)N)NC(=O)[C@@H]1CCCN1C(=O)[C@H](C)NC(=O)[C@@H](NC(=O)[C@H](CC(N)=O)NC(=O)[C@H](CC(=O)O)NC(=O)[C@H](CCCCN)NC(=O)[C@H](CC(=O)O)NC(=O)[C@H](CCCCN)NC(=O)[C@H](CC(=O)O)NC(=O)[C@@H](NC(=O)[C@H](Cc1ccccc1)NC(=O)[C@H](CCC(N)=O)NC(=O)[C@H](Cc1ccc(O)cc1)NC(=O)[C@@H](NC(=O)[C@H](CCC(N)=O)NC(=O)[C@H](Cc1c[nH]cn1)NC(=O)[C@H](C)NC(=O)[C@H](CC(C)C)NC(=O)[C@H](CCCNC(=N)N)NC(=O)[C@H](CCC(N)=O)NC(=O)[C@@H](NC(=O)[C@@H](NC(=O)[C@@H]1CSSC[C@H](NC(=O)CN)C(=O)N[C@@H](CCCNC(=N)N)C(=O)N[C@@H](Cc2ccccc2)C(=O)NCC(=O)N[C@@H]([C@@H](C)O)C(=O)N1)[C@@H](C)O)C(C)C)[C@@H](C)CC)[C@@H](C)O)C(C)C)[C@@H](C)O)C(=O)NCC(=O)N1CCC[C@H]1C(=O)N[C@@H](CC(N)=O)C(=O)NCC(=O)N1C[C@H](O)C[C@H]1C(N)=O [compound 81] (H-GCRFGTCTVQRLAHQIYQFTDKDKDNVAPRTNIGPNG[Hyp]-NH2; disulfide 2-7; N-terminus assumed)
0.011 | 34.100 | CC[C@H](C)[C@H](NC(=O)[C@H](CC(N)=O)NC(=O)[C@@H](NC(=O)[C@H](CCCNC(=N)N)NC(=O)[C@@H]1CCCN1C(=O)[C@H](C)NC(=O)[C@@H](NC(=O)[C@H](CC(N)=O)NC(=O)[C@H](CC(=O)O)NC(=O)[C@H](CCCCN)NC(=O)[C@H](CC(=O)O)NC(=O)[C@H](CCCCN)NC(=O)[C@H](CC(=O)O)NC(=O)[C@@H](NC(=O)[C@H](Cc1ccccc1)NC(=O)[C@H](CCC(N)=O)NC(=O)[C@H](Cc1ccc(O)cc1)NC(=O)[C@@H](NC(=O)[C@H](CCC(N)=O)NC(=O)[C@H](Cc1c[nH]cn1)NC(=O)[C@H](C)NC(=O)[C@H](CC(C)C)NC(=O)[C@H](CCCNC(N)=O)NC(=O)[C@H](CCC(N)=O)NC(=O)[C@@H](NC(=O)[C@@H](NC(=O)[C@@H]1CSSC[C@H](NC(=O)CN)C(=O)N[C@@H](CCCNC(=N)N)C(=O)N[C@@H](Cc2ccccc2)C(=O)NCC(=O)N[C@@H]([C@@H](C)O)C(=O)N1)[C@@H](C)O)C(C)C)[C@@H](C)CC)[C@@H](C)O)C(C)C)[C@@H](C)O)C(=O)NCC(=O)N1CCC[C@H]1C(=O)N[C@@H](CCC(N)=O)C(=O)NCC(=O)N1C[C@H](O)C[C@H]1C(N)=O [compound 260] (H-GCRFGTCTVQ[Cit]LAHQIYQFTDKDKDNVAPRTNIGPQG[Hyp]-NH2; disulfide 2-7; N-terminus assumed)
